Source: the supplement of paper PMC10307832

How the values were obtained:
Test in all cases: relative viability (nuclei count vs DMSO), 5 days (fraction); higher = more cells survive
Zosuquidar + Crizotinib = compound: O[C@@H](COc1cccc2ncccc12)CN1CCN([C@@H]2c3ccccc3[C@@H]3[C@H](c4ccccc42)C3(F)F)CC1 [Zosuquidar] + C[C@@H](Oc1cc(-c2cnn(C3CCNCC3)c2)cnc1N)c1c(Cl)ccc(F)c1Cl [Crizotinib] (partner 1 µM)
How it was run: (§1)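 Dosing by pin tool came one day after lung cancer cell lines were seeded in 1536-well plates, using either one drug or a fixed anchor-drug dose plus five library-drug doses (not always all listed) in √10 steps. After 5 days, nuclei were counted on 4× images. Relative viability is treated-well nuclei count divided by vehicle-well nuclei count, and values are medians of duplicate plates.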

[1] = compound: COc1cc2nccc(Oc3ccc(NC(=O)C4(C(=O)Nc5ccc(F)cc5)CC4)cc3)c2cc1OC [Cabozantinib] + C[C@@H](Oc1cc(-c2cnn(C3CCNCC3)c2)cnc1N)c1c(Cl)ccc(F)c1Cl [Crizotinib] (partner 1 µM)
How it was run: as §1

Zosuquidar + Pemetrexed = compound: O[C@@H](COc1cccc2ncccc12)CN1CCN([C@@H]2c3ccccc3[C@@H]3[C@H](c4ccccc42)C3(F)F)CC1 [Zosuquidar] + Nc1nc2[nH]cc(CCc3ccc(C(=O)N[C@@H](CCC(=O)O)C(=O)O)cc3)c2c(=O)[nH]1 [Pemetrexed] (partner 0.2 µM)
How it was run: as §1

Zosuquidar + Luminespib = compound: O[C@@H](COc1cccc2ncccc12)CN1CCN([C@@H]2c3ccccc3[C@@H]3[C@H](c4ccccc42)C3(F)F)CC1 [Zosuquidar] + CCNC(=O)c1noc(-c2cc(C(C)C)c(O)cc2O)c1-c1ccc(CN2CCOCC2)cc1 [Luminespib] (partner 0.01 µM)
How it was run: as §1

Row | Cell Line | relative viability (Zosuquidar + Crizotinib; first compound 0.01 µM) | relative viability (Zosuquidar + Crizotinib; first compound 0.03162 µM) | relative viability (Zosuquidar + Crizotinib; first compound 0.1 µM) | relative viability (Zosuquidar + Crizotinib; first compound 0.3162 µM) | relative viability (Zosuquidar + Crizotinib; first compound 1 µM) | relative viability ([1]; first compound 0.02 µM) | relative viability ([1]; first compound 0.06325 µM) | relative viability ([1]; first compound 0.2 µM) | relative viability ([1]; first compound 0.6325 µM) | relative viability ([1]; first compound 2 µM) | relative viability (Zosuquidar + Pemetrexed; first compound 0.01 µM) | relative viability (Zosuquidar + Pemetrexed; first compound 0.03162 µM) | relative viability (Zosuquidar + Pemetrexed; first compound 0.1 µM) | relative viability (Zosuquidar + Pemetrexed; first compound 0.3162 µM) | relative viability (Zosuquidar + Pemetrexed; first compound 1 µM) | relative viability (Zosuquidar + Luminespib; first compound 0.01 µM) | relative viability (Zosuquidar + Luminespib; first compound 0.03162 µM) | relative viability (Zosuquidar + Luminespib; first compound 0.1 µM) | relative viability (Zosuquidar + Luminespib; first compound 0.3162 µM) | relative viability (Zosuquidar + Luminespib; first compound 1 µM)
1 | 201T | 0.986 | 0.891 | 0.996 | 0.983 | 1.04 | 1.04 | 1.02 | 0.988 | 0.956 | 0.976 | 0.315 | 0.334 | 0.35 | 0.322 | 0.334 | 1.02 | 1 | 0.961 | 1.12 | 1.04
2 | A549 | 0.805 | 0.738 | 0.844 | 0.722 | 0.765 | 0.812 | 0.853 | 0.787 | 0.79 | 0.729 |  |  |  |  |  |  |  |  |  | 
3 | A-427 | 0.851 | 0.911 | 0.784 | 0.957 | 0.858 | 0.836 | 0.968 | 0.887 | 0.789 | 0.858 | 1.01 | 0.996 | 0.806 | 1.02 | 0.796 | 1.15 | 0.963 | 0.749 | 1.13 | 0.756
4 | ABC-1 | 1.19 | 1.17 | 1.41 | 1.31 | 1.08 | 1.23 | 1.08 | 1.19 | 0.952 | 1.01 |  |  |  |  |  | 0.682 | 0.742 | 0.748 | 0.603 | 0.474
5 | BEN | 1.01 | 0.923 | 0.827 | 0.821 | 0.77 | 1.12 | 1 | 0.868 | 0.895 | 0.767 | 0.75 | 0.738 | 0.476 | 1.05 | 0.684 | 0.374 | 0.218 | 0.381 | 0.274 | 0.329
6 | CAL-12T | 0.51 | 0.676 | 0.719 | 0.747 | 0.497 | 0.724 | 0.753 | 0.634 | 0.611 | 0.429 | 1.08 | 1.15 | 0.983 | 1.23 | 1.1 | 0.443 | 0.575 | 0.513 | 0.221 | 0.504
7 | COR-L23 | 0.661 | 0.699 | 0.787 | 0.647 | 0.716 | 0.73 | 0.791 | 0.716 | 0.621 | 0.544 | 0.222 | 0.188 | 0.201 | 0.198 | 0.189 | 0.619 | 0.631 | 0.747 | 0.777 | 0.776
8 | COR-L 105 | 0.953 | 0.727 | 0.788 | 0.838 | 0.73 | 0.653 | 1.03 |  | 0.659 | 0.561 | 1.27 | 1.01 | 1.18 | 1.1 | 1.16 | 0.923 | 0.789 | 0.757 | 0.858 | 0.782
9 | Calu-6 | 0.872 | 0.764 | 0.879 | 0.844 | 0.791 | 0.788 | 0.925 | 0.742 | 0.75 | 0.773 |  |  |  |  |  |  |  |  |  | 
10 | ChaGo-K-1 | 1.08 | 1.2 | 1.32 | 1.1 | 1.13 | 1.24 | 1.3 | 1.18 | 1.13 | 1.09 | 0.266 | 0.255 | 0.263 | 0.266 | 0.26 | 0.714 | 0.625 | 0.652 | 0.578 | 0.512
11 | EBC-1 | 0.193 | 0.214 | 0.201 | 0.201 | 0.205 | 0.194 | 0.173 | 0.182 | 0.198 | 0.213 |  |  |  |  |  |  |  |  |  | 
12 | EKVX | 0.951 | 1.01 | 0.883 | 0.995 | 0.705 | 1.25 | 1.07 | 0.856 | 0.907 | 1.03 | 0.373 | 0.392 |  | 0.435 | 0.444 | 0.926 | 0.8 | 0.749 | 0.812 | 0.832
13 | EMC-BAC-2 | 0.78 | 0.724 | 0.767 | 0.843 | 0.765 | 0.841 | 0.779 | 0.781 | 0.817 | 0.827 | 0.459 | 0.417 | 0.441 | 0.457 | 0.335 | 1.19 | 1.19 | 1.05 | 1.29 | 1.11
14 | EPLC-272H | 0.899 | 0.901 | 0.97 | 0.813 | 0.751 | 0.893 | 0.946 | 0.783 | 0.835 | 0.771 | 0.376 | 0.317 | 0.357 | 0.404 | 0.363 | 0.39 | 0.362 | 0.514 | 0.361 | 0.266
15 | H3255 | 0.885 | 0.832 | 0.669 | 0.945 | 0.857 | 0.922 | 0.927 |  | 0.974 | 0.931 | 0.574 | 0.569 | 0.506 | 0.574 | 0.535 | 1.02 | 0.925 | 0.666 | 1.05 | 0.814
16 | HARA | 0.924 | 1.03 | 1.14 | 1.09 | 1.07 | 1.22 | 1.17 | 1.09 | 0.957 | 1.09 | 0.259 | 0.234 | 0.247 | 0.31 | 0.277 | 0.586 |  | 0.837 | 0.92 | 0.649
17 | HCC-15 | 0.821 | 0.865 | 0.71 | 0.856 | 0.874 | 0.877 | 0.956 | 0.828 | 0.873 | 0.811 | 0.209 | 0.218 | 0.255 | 0.219 | 0.236 | 0.122 | 0.5 | 0.21 | 0.222 | 0.533
